Measurements as given in US20200131196A1 (Mount Tam Therapeutics, Inc., priority 2017, published 2020).
Blank lines part the entries; values can stand above or below the compound they belong to.

Tests used:
CAMA-1 = test: OncoPanel cell proliferation assay, CAMA-1; conditions: for Cell Count Activity Area: CAMA-1; for EC50: CAMA-1, read-out: Cell Count EC50; for IC50: CAMA-1, read-out: Cell Count IC50
Description: (§5) Cells were seeded into 384-well plates and incubated in a humidified atmosphere of 5% CO2 at 37° C. Compounds were added the day following cell seeding. At the same time, a time zero untreated cell plate was generated. After a 3-day incubation period, cells were fixed and stained to allow fluorescence imaging of nuclei. Compounds (1 mM stock solutions) were serially diluted in half-log steps from the highest test concentration (1 micromol), and assayed over 10 concentrations with a maximum assay concentration of 0.1% DMSO. Automated fluorescence microscopy was carried out using a Molecular Devices ImageXpress Micro XL high-content imager, and images were collected with a 4× objective. 16-bit TIFF images were acquired and analyzed with MetaXpress 5.1.0.41 software.

NCI-H510A = test: OncoPanel cell proliferation assay, NCI-H510A; assay type: cell-based, human; conditions: for EC50: read-out: Cell Count EC50; for GI50: read-out: Cell Count GI50
Description: (§1) Cells were grown in RPMI 1640, 10% FBS, 2 mM L-alanyl-L-glutamine, 1 mM Na pyruvate, or a special medium. Cells were seeded into 384-well plates and incubated in a humidified atmosphere of 5% CO2 at 37° C. Compounds were added the day following cell seeding. At the same time, a time zero untreated cell plate was generated. After a 3-day incubation period, cells were fixed and stained to allow fluorescence imaging of nuclei. Compounds (1 mM stock solutions) were serially diluted in half-log steps from the highest test concentration ([…]), and assayed over 10 concentrations with a maximum assay concentration of 0.1% DMSO. Automated fluorescence microscopy was carried out using a Molecular Devices ImageXpress Micro XL high-content imager, and images were collected with a 4× objective. 16-bit TIFF images were acquired and analyzed with MetaXpress 5.1.0.41 software.
(§2) Cell proliferation was measured by the fluorescence intensity of an incorporated nuclear dye. The output is referred to as the relative cell count, where the measured nuclear intensity is transformed to percent of control (POC) using the following formula: […]
(§3) Cellular response parameters were calculated using nonlinear regression to a sigmoidal single-site dose response model:
(§4) EC50 is the test compound concentration at the curve inflection point or half the effective response (parameter C of the fitted curve solution). GI50 is the concentration needed to reduce the observed growth by half (midway between the curve maximum and the time zero value). “Cell Count Activity Area” is an estimate of the integrated area above the curve (Barretina, et al. The Cancer Cell Line Encyclopedia enables predictive modelling of anticancer drug sensitivity. Nature 483: 603-607). […] In rare instances, values <0 or >10 may be observed. […] Curve-fitting, calculations, and report generation was performed using a custom data reduction engine and MathIQ based software (AIM).

Hs 729 = test: OncoPanel cell proliferation assay, Hs 729; assay type: cell-based, human; conditions: for GI50: read-out: Cell Count GI50; for IC50: read-out: Cell Count IC50
Description: as §1, §2, §3, §4

OVCAR3 = test: OncoPanel cell proliferation assay, OVCAR3; conditions: for GI50: OVCAR-3, read-out: Cell Count GI50; for Cell Count Activity Area: OVCAR3
Description: as §5

A388 = test: OncoPanel cell proliferation assay, A388; assay type: cell-based, human; conditions: for GI50: read-out: Cell Count GI50
Description: as §1, with “Cells” for “Cells were grown in RPMI 1640, 10% FBS, 2 mM L-alanyl-L-glutamine, 1 mM Na pyruvate, or a special medium. Cells”
as §2, §3
GI50 is the concentration needed to reduce the observed growth by half (midway between the curve maximum and the time zero value). […] In rare instances, values <0 or >10 may be observed. […] Curve-fitting, calculations, and report generation was performed using a custom data reduction engine and MathIQ based software (AIM).

ST486 = test: OncoPanel cell proliferation assay, ST486; assay type: cell-based, human; conditions: for GI50: read-out: Cell Count GI50; for IC50: read-out: Cell Count IC50
Description: as §1, §2, §3, §4

SHP-77 = test: OncoPanel cell proliferation assay, SHP-77; conditions: for EC50 / GI50 / IC50: Homo sapiens; for EC50: SHP77, read-out: Cell Count EC50; for GI50: SHP77, read-out: Cell Count GI50; for IC50: SHP77, read-out: Cell Count IC50; for Cell Count Activity Area: SHP-77
Description: as §5

AGS = test: OncoPanel cell proliferation assay, AGS; assay type: cell-based, human; conditions: for GI50: read-out: Cell Count GI50; for IC50: read-out: Cell Count IC50
Description: as §1, §2, §3, §4

U-138MG = test: OncoPanel cell proliferation assay, U-138MG; assay type: cell-based, human; conditions: U-138MG; for EC50: read-out: Cell Count EC50; for GI50: read-out: Cell Count GI50
Description: as §1, §2, §3, §4

NCIH446 = test: OncoPanel cell proliferation assay, NCIH446; assay type: cell-based, human; conditions: for EC50: NCI-H446, read-out: Cell Count EC50; for GI50: NCI-H446, read-out: Cell Count GI50
Description: as §1, §2, §3, §4

CEM-C1 = test: OncoPanel cell proliferation assay, CEM-C1; assay type: cell-based, human; conditions: for GI50: read-out: Cell Count GI50; for IC50: read-out: Cell Count IC50
Description: as §1, §2, §3, §4

G-402 = test: OncoPanel cell proliferation assay, G-402; assay type: cell-based, human; conditions: for GI50: read-out: Cell Count GI50
Description: as §1, §2, §3, §4

[1] = Homo sapiens, read-out: Cell Count IC50
[2] = Homo sapiens, read-out: Cell Count EC50

EC50 (NCI-H510A; Homo sapiens): > 1000 nM | GI50 (NCI-H510A; Homo sapiens): > 1000 nM | IC50 (NCI-H510A; [1]): > 1000 nM | EC50 (OVCAR3; Homo sapiens, OVCAR-3, read-out: Cell Count EC50): 1.53 nM | GI50 (OVCAR3; Homo sapiens): 124 nM | IC50 (OVCAR3; Homo sapiens, OVCAR-3, read-out: Cell Count IC50): > 1000 nM | EC50 (AGS; [2]): 0.0387 nM | GI50 (AGS; Homo sapiens): 0.165 nM | IC50 (AGS; Homo sapiens): 0.314 nM
Structure (SMILES): CO[C@H]1C[C@@H]2CC[C@@H](C)[C@@](O)(O2)C(=O)C(=O)N2CCCC[C@H]2C(=O)O[C@H]([C@H](C)C[C@@H]2CC[C@@H](O)[C@H](OC)C2)CC(=O)[C@H](C)/C=C(\C)[C@@H](O)[C@@H](OC)C(=O)[C@H](C)C[C@H](C)/C=C/C=C/C=C/1C [Rapamycin, reference compound]
Cell Count Activity Area (CAMA-1): 4.07 | EC50 (CAMA-1; Homo sapiens): 0.194 nM | IC50 (CAMA-1; Homo sapiens): 1.19 nM | Cell Count Activity Area (NCI-H510A): 1.63 | Cell Count Activity Area (Hs 729): 0.55 | EC50 (Hs 729; [2]): > 1000 nM | GI50 (Hs 729; Homo sapiens): > 1000 nM | IC50 (Hs 729; Homo sapiens): > 1000 nM | Cell Count Activity Area (OVCAR3): 2.08 | EC50 (A388; [2]): > 1000 nM | GI50 (A388; Homo sapiens): > 1000 nM | IC50 (A388; [1]): > 1000 nM | Cell Count Activity Area (ST486): 3.99 | EC50 (ST486; [2]): 0.0354 nM | GI50 (ST486; Homo sapiens): 0.0524 nM | IC50 (ST486; Homo sapiens): > 1000 nM | EC50 (SHP-77): > 1000 nM | GI50 (SHP-77): > 1000 nM | IC50 (SHP-77): > 1000 nM | Cell Count Activity Area (SHP-77): 1.13 | Cell Count Activity Area (AGS): 5.67 | EC50 (U-138MG; Homo sapiens, U138-MG): 0.0363 nM | GI50 (U-138MG; Homo sapiens, U138-MG): 0.436 nM | IC50 (U-138MG; Homo sapiens, U138-MG, read-out: Cell Count IC50): > 1000 nM | Cell Count Activity Area (U-138MG): 3.14 | Cell Count Activity Area (NCIH446): 1.69 | EC50 (NCIH446; Homo sapiens): > 1000 nM | GI50 (NCIH446; Homo sapiens): 44.4 nM | IC50 (NCIH446; Homo sapiens, NCI-H446, read-out: Cell Count IC50): > 1000 nM | Cell Count Activity Area (CEM-C1): 3.61 | EC50 (CEM-C1; [2]): 0.265 nM | GI50 (CEM-C1; Homo sapiens): 4.36 nM | IC50 (CEM-C1; Homo sapiens): > 1000 nM | Cell Count Activity Area (G-402): 4.68 | EC50 (G-402; [2]): 0.111 nM | GI50 (G-402; Homo sapiens): 0.182 nM | IC50 (G-402; [1]): 0.334 nM

Structure (SMILES): CN[C@@H]1C[C@H]2O[C@@](C)([C@@H]1OC)n1c3ccccc3c3c4c(c5c6ccccc6n2c5c31)C(=O)NC4 [Staurosporine, reference compound]
Cell Count Activity Area (CAMA-1): 2.99 | EC50 (CAMA-1; Homo sapiens): 20.2 nM | GI50 (CAMA-1; Homo sapiens, CAMA-1, read-out: Cell Count GI50): 12 nM | IC50 (CAMA-1; Homo sapiens): 99 nM | Cell Count Activity Area (NCI-H510A): 1.68 | EC50 (NCI-H510A; Homo sapiens): 39.8 nM | GI50 (NCI-H510A; Homo sapiens): 56.5 nM | Cell Count Activity Area (Hs 729): 4.06 | GI50 (Hs 729; Homo sapiens): 0.898 nM | IC50 (Hs 729; Homo sapiens): 7.04 nM | GI50 (OVCAR3; Homo sapiens): 6.11 nM | Cell Count Activity Area (OVCAR3): 3.41 | Cell Count Activity Area (A388): 4.99 | GI50 (A388; Homo sapiens): 1.03 nM | Cell Count Activity Area (ST486): 4.89 | GI50 (ST486; Homo sapiens): 2.83 nM | IC50 (ST486; Homo sapiens): 4.61 nM | EC50 (SHP-77): 28.1 nM | GI50 (SHP-77): 24.2 nM | IC50 (SHP-77): 30.8 nM | Cell Count Activity Area (SHP-77): 3.16 | Cell Count Activity Area (AGS): 6.19 | GI50 (AGS; Homo sapiens): 0.926 nM | IC50 (AGS; Homo sapiens): 1.21 nM | EC50 (U-138MG; Homo sapiens, U138-MG): 0.857 nM | GI50 (U-138MG; Homo sapiens, U138-MG): 1.05 nM | Cell Count Activity Area (U-138MG): 3.72 | Cell Count Activity Area (NCIH446): 2.81 | EC50 (NCIH446; Homo sapiens): 32.6 nM | GI50 (NCIH446; Homo sapiens): 16.8 nM | Cell Count Activity Area (CEM-C1): 4.28 | GI50 (CEM-C1; Homo sapiens): 7.27 nM | IC50 (CEM-C1; Homo sapiens): 9.2 nM | Cell Count Activity Area (G-402): 5.93 | GI50 (G-402; Homo sapiens): 0.664 nM
